The record followed here is US20250161281A1, “EMOPAMIL-BINDING PROTEIN INHIBITORS AND USES THEREOF” (BIOGEN MA INC., priority 2022, published 2025).

Where only a bound is given, the exact number is not on record here.

T1 sequence (Q15125 whole entry): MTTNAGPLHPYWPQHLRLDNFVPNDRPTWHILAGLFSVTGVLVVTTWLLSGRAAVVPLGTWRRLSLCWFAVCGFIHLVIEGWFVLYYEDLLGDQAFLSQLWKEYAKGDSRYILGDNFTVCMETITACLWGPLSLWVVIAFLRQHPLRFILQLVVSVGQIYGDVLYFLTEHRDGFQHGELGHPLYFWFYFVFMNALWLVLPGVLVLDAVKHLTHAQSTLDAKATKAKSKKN

The assay addresses T1, EBP (Homo sapiens, UniProt Q15125).
T1 construct: HEK293T cells were utilized as the source of EBP enzyme; endogenous in cells; host or cells: HEK293T
Nature of the assay: EBP Functional Assay (EBP immunoaffinity LC-MS assay). The assay is classed as biochemical. The following applies: HEK293T cells as source of EBP enzyme; 30 min with inhibitor, then zymosterol-d5, 37° C. for 4 h; percent conversion by LC-APCI MRM MS. How it is done: The EBP immunoaffinity (IA) LC-MS assay measures the potency of small molecule inhibitors of EBP by quantifying their concentration-dependent changes in the enzyme's substrate and product using liquid chromatography atmospheric pressure chemical ionization multiple reaction monitoring mass spectrometry (LC-APCI MRM MS). HEK293T cells were utilized as the source of EBP enzyme. The enzyme was incubated with the small molecule inhibitors at variable concentrations for 30 min. Deuterated form of EBP substrate, zymosterol-d5 (Avanti Polar Lipids, Cat #700068P-1 mg), was then added and the plate was incubated at 37° C. for 4 h. Finally, the sterol isomers were extracted and injected to LC-APCI MRM MS. MRM transition used for the quantification for both zymosterol and dihydrolathosterol (substrate and product of EBP enzymatic reaction, respectively) is 372.3-203.2, CE 30 and DP 80 in positive ion mode. Percent conversion of the zymosterol-d5 to dehydrolathosterol-d5 was used to derive IC50 curves. Tasin-1 (1′-[(4-Methoxyphenyl)sulfonyl]-4-methyl-1,4′-bipiperidine, CAS 792927-06-1) was used as the reference small molecule inhibitor. Percent conversion versus the compound concentration data were fit to the following 4-parameter logistic model to generate IC50 curves: […]
One may read the IC50 as the concentration at which inhibition is half-maximal. As for `COC1CCN(C2CC3CCC(C2)N3S(=O)(=O)c2ccc(OC(F)F)cc2)C1` (stereo not shown) [Example 50, 8-((4-(Difluoromethoxy)phenyl)sulfonyl)-3-(3-methoxypyrrolidin-1-yl)-8-azabicyclo[3.2.1]octane], the IC50 fell in the range of 50 to 150 nM. In the case of `CC(C)(O)CN[C@@H]1C[C@H]2CC[C@@H](C1)N2S(=O)(=O)c1ccc(OC(F)F)cc1` [Example 76, 1-(((1R,3s,5S)-8-((4-(Difluoromethoxy)phenyl)sulfonyl)-8-azabicyclo[3.2.1]octan-3-yl)amino)-2-methylpropan-2-ol] it was 150 to 2000 nM.

In turn, `O=S(=O)(c1ccc(OC(F)F)cc1)N1[C@@H]2CC[C@H]1C[C@H](NC[C@H]1C[C@@H](O)C1)C2` (single isomer, unassigned) [Example 63] registered an IC50 of 150 to 2000 nM. In the case of `CC1CCN([C@@H]2C[C@H]3CC[C@@H](C2)N3S(=O)(=O)c2cn3c(n2)CCCC3C)CC1` (stereo partly drawn) [Example 11, 5-Methyl-2-(((1R,3s,5S)-3-(4-methylpiperidin-1-yl)-8-azabicyclo[3.2.1]octan-8-yl)sulfonyl)-5,6,7,8-tetrahydroimidazo[1,2-a]pyridine] it was less than 50 nM. For the compound `CC(O)CCN[C@H]1C[C@H]2CC[C@@H](C1)N2S(=O)(=O)c1ccc(OC(F)F)cc1` (mixture of isomers) [Example 59, rac-4-(((1R,3r,5S)-8-((4-(difluoromethoxy)phenyl)sulfonyl)-8-azabicyclo[3.2.1]octan-3-yl)amino)butan-2-ol], the concentration for half-maximal inhibition (IC50) lay within 50 to 150 nM. On to `CC1(CNC2C[C@H]3CC[C@@H](C2)N3S(=O)(=O)c2ccc(OC(F)F)cc2)COC1` (mixture of isomers) [Example 15, 8-((4-(Difluoromethoxy)phenyl)sulfonyl)-N-((3-methyloxetan-3-yl)methyl)-8-azabicyclo[3.2.1]octan-3-amine], for which the half-maximal inhibitory concentration (IC50) was less than 50 nM. In turn, `COCc1ccc(S(=O)(=O)N2[C@@H]3CC[C@H]2C[C@H](N2CCC(C)CC2)C3)o1` [Example 8, (1R,3s,5S)-8-((5-(Methoxymethyl)furan-2-yl)sulfonyl)-3-(4-methylpiperidin-1-yl)-8-azabicyclo[3.2.1]octane] had an IC50 of less than 50 nM. As for `O=S(=O)(c1ccc(OC(F)F)cc1)N1[C@@H]2CC[C@H]1C[C@H](NCC1(O)CCOCC1)C2` [Example 18, 4-((((1R,3s,5S)-8-((4-(Difluoromethoxy)phenyl)sulfonyl)-8-azabicyclo[3.2.1]octan-3-yl)amino)methyl)tetrahydro-2H-pyran-4-ol], the IC50 is less than 50 nM.

`Cc1nc(C(F)(F)F)ccc1S(=O)(=O)N1[C@@H]2CC[C@H]1C[C@@H](NCC1(C)COC1)C2` (single isomer, unassigned) [Example 27]: the IC50 was less than 50 nM. In the case of `Cc1cnn(C)c1S(=O)(=O)N1[C@@H]2CC[C@H]1C[C@H](N1CCC(C)CC1)C2` [Example 12, (1R,3s,5S)-8-((1,4-Dimethyl-1H-pyrazol-5-yl)sulfonyl)-3-(4-methylpiperidin-1-yl)-8-azabicyclo[3.2.1]octane], the concentration for half-maximal inhibition (IC50) is less than 50 nM. In the case of `Cc1cc(S(=O)(=O)N2[C@@H]3CC[C@H]2C[C@H](CN2CCOCC2)C3)n(C)n1` [Example 36, 4-(((1R,3s,5S)-8-((1,3-Dimethyl-1H-pyrazol-5-yl)sulfonyl)-8-azabicyclo[3.2.1]octan-3-yl)methyl)morpholine] it was less than 50 nM. `CC1CCN([C@H]2C[C@H]3CC[C@@H](C2)N3S(=O)(=O)c2cnc(C3CCOCC3)o2)CC1` [Example 2, 5-(((1R,3r,5S)-3-(4-Methylpiperidin-1-yl)-8-azabicyclo[3.2.1]octan-8-yl)sulfonyl)-2-(tetrahydro-2H-pyran-4-yl)oxazole] had an IC50 of less than 50 nM. As for `CC1(CN[C@@H]2C[C@H]3CC[C@@H](C2)N3S(=O)(=O)c2ccc(OC(F)F)cc2)COC1` [Example 28, (1R,3s,5S)-8-((4-(Difluoromethoxy)phenyl)sulfonyl)-N-((3-methyloxetan-3-yl)methyl)-8-azabicyclo[3.2.1]octan-3-amine], the concentration for half-maximal inhibition (IC50) is less than 50 nM.
